Reference: US10409869B2, “(R)- and (S)-1-(3-(3-N,N-dimethylaminocarbonyl)phenoxyl-4-nitrophenyl)-1-ethyl-N,N'-bis (ethylene)phosphoramidate, compositions and methods for their use and preparation” (OBI Pharma, Inc., priority 2015, dated 2019)

Tests used:
Assay type in all cases: in vivo, Cynomolgus monkeys
[1] = Body weight in monkeys, 2 mg/kg 30-min IV infusion; conditions: Day 1, Mean
Description: (§1) TH 3423 and TH 3424 were tested in […] naïve monkeys (1 male and one female for each compound at 2 mg/kg) with 30-min intravenous infusion, TK sampling: on Day 1 and Day 15: 0.25, 0.5, 0.75, 1 and 2 hr post infusion initiation. Serum chemistry and hematology: pre-dose (Day 1), day 5, day 8 (pre-dose), day 15 (pre-dose), day 22 and day 28. Clinical observation: Daily during the study, total 35 days. Food consumption: Daily during the study, total 35 days. Bodyweight measurement: Twice weekly for five weeks.

[2] = Plasma concentration and TK after 30-min IV infusion at 2 mg/kg; conditions: for AUC(0-inf) / AUC(0-t): Cynomolgus, cynomolgus monkey, plasma, iv, 2 mg/kg
Description: as §1

[3] = Hematology in monkeys, 2 mg/kg 30-min IV infusion; conditions: female
Description: as §1

Q: What does the source list for C[C@@H](OP(=O)(N1CC1)N1CC1)c1ccc([N+](=O)[O-])c(Oc2cccc(C(=O)N(C)C)c2)c1 (single isomer, unassigned) [TH3423]?
A: body weight [1]: 3.50; Plasma concentration ([2]; 2 hr, female): BQL; AUC(0-inf) ([2]; both sexes, Mean): 770 ng·h/mL; AUC(0-t) ([2]; both sexes, Mean): 766 ng·h/mL; AUC(0-inf) ([2]; female): 766 ng·h/mL; AUC(0-t) ([2]; female): 758 ng·h/mL; AUC(0-inf) ([2]; male): 774 ng·h/mL; AUC(0-t) ([2]; male): 773 ng·h/mL; % BASO ([3]; Day 1 (pre-dose)): 0.0%; % EOS ([3]; Day 1 (pre-dose)): 2.3%; % MONO ([3]; Day 1 (pre-dose)): 4.8%; % NEUT ([3]; Day 1 (pre-dose)): 47.9%; HCT ([3]; Day 1 (pre-dose)): 35%; HGB ([3]; Day 1 (pre-dose)): 112 g/L; LYM ([3]; Day 1 (pre-dose)): 45%; MCH ([3]; Day 1 (pre-dose)): 24 pg; MCHC ([3]; Day 1 (pre-dose)): 320 g/L; MCV ([3]; Day 1 (pre-dose)): 74.9 fL; MPV ([3]; Day 1 (pre-dose)): 10.6 fL; PCT ([3]; Day 1 (pre-dose)): 0.338%; PDW ([3]; Day 1 (pre-dose)): 14.8; PLT ([3]; Day 1 (pre-dose)): 3.18e+11 L⁻¹; RBC ([3]; Day 1 (pre-dose)): 4.67e+12 L⁻¹; RDW-CV ([3]; Day 1 (pre-dose)): 11.8%; RDW-SD ([3]; Day 1 (pre-dose)): 37.2 fL; WBC ([3]; Day 1 (pre-dose)): 6.7e+09 L⁻¹; abs_basos ([3]; Day 1 (pre-dose)): 0 L⁻¹; abs_eos ([3]; Day 1 (pre-dose)): 1.5e+08 L⁻¹; abs_lymphs ([3]; Day 1 (pre-dose)): 3.02e+09 L⁻¹; abs_monos ([3]; Day 1 (pre-dose)): 3.2e+08 L⁻¹; abs_neuts ([3]; Day 1 (pre-dose)): 3.21e+09 L⁻¹; % BASO ([3]; Day 8 (pre-dose)): 0.20%; % EOS ([3]; Day 8 (pre-dose)): 2.30%; % MONO ([3]; Day 8 (pre-dose)): 0.00%; % NEUT ([3]; Day 8 (pre-dose)): 61.90%; HCT ([3]; Day 8 (pre-dose)): 39.80%; HGB ([3]; Day 8 (pre-dose)): 128.00 g/L; LYM ([3]; Day 8 (pre-dose)): 35.60%; MCH ([3]; Day 8 (pre-dose)): 24.60 pg; MCHC ([3]; Day 8 (pre-dose)): 322.00 g/L; MCV ([3]; Day 8 (pre-dose)): 76.30 fL; MPV ([3]; Day 8 (pre-dose)): 9.60 fL; PCT ([3]; Day 8 (pre-dose)): 0.67%; PDW ([3]; Day 8 (pre-dose)): 15.40; PLT ([3]; Day 8 (pre-dose)): 6.99e+11 L⁻¹; RBC ([3]; Day 8 (pre-dose)): 5.21e+12 L⁻¹; RDW-CV ([3]; Day 8 (pre-dose)): 12.30%; RDW-SD ([3]; Day 8 (pre-dose)): 39.50 fL; WBC ([3]; Day 8 (pre-dose)): 1.035e+10 L⁻¹; abs_basos ([3]; Day 8 (pre-dose)): 2e+07 L⁻¹; abs_eos ([3]; Day 8 (pre-dose)): 2.5e+08 L⁻¹; abs_lymphs ([3]; Day 8 (pre-dose)): 3.68e+09 L⁻¹; abs_monos ([3]; Day 8 (pre-dose)): 0 L⁻¹; abs_neuts ([3]; Day 8 (pre-dose)): 6.4e+09 L⁻¹; % BASO ([3]; Day 15 (pre-dose)): 0.10%; % EOS ([3]; Day 15 (pre-dose)): 2.70%; % MONO ([3]; Day 15 (pre-dose)): 6.30%; % NEUT ([3]; Day 15 (pre-dose)): 63.0%; HCT ([3]; Day 15 (pre-dose)): 33.9%; HGB ([3]; Day 15 (pre-dose)): 115 g/L; LYM ([3]; Day 15 (pre-dose)): 27.90%
